Reference: patent US11051515B2, “3-acyl-benzamides and their use as herbicides” (Bayer Aktiengesellschaft, priority 2017, dated 2021)

Experiments:
[1] = tested on: AVEFA; test: Pre-emergence action against AVEFA; assay type: in vivo, Avena fatua; conditions: Avena fatua, 504 h, dosage 320 g/ha, scored visually after 3 weeks vs untreated controls, read-out: Pre-emergence action against AVEFA (herbicidal activity)
Procedure, shortened: (§1)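 Seeds sown in sandy loam in wood-fiber pots and covered with soil. Greenhouse growth; visual damage scored after 3 weeks versus untreated controls (100% = dead, 0% = like control).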

[2] = tested on: CYPES; test: Pre-emergence action against CYPES; assay type: in vivo, Cyperus esculentus; conditions: Cyperus esculentus, 504 h; pre-emergence, dosage 320 g/ha, scored visually after 3 weeks vs untreated controls; read-out: Pre-emergence action against CYPES (herbicidal activity)
Procedure, shortened: as §1

[3] = tested on: ECHCG; test: Pre-emergence action against ECHCG; assay type: in vivo, Echinochloa crus-galli; conditions: Echinochloa crus-galli, 504 h; pre-emergence, dosage 320 g/ha, scored visually after 3 weeks vs untreated controls; read-out: Pre-emergence action against ECHCG (herbicidal activity)
Procedure, shortened: as §1

[4] = tested on: SETVI; test: Pre-emergence action against SETVI; assay type: in vivo, Setaria viridis; conditions: Setaria viridis, 504 h; pre-emergence, dosage 320 g/ha, scored visually after 3 weeks vs untreated controls; read-out: SETVI (Table B8, pre-emergence herbicidal activity)
Procedure, shortened: as §1

[5] = tested on: POLCO; test: Pre-emergence action against POLCO; assay type: in vivo, Polygonum convolvulus; conditions: Fallopia convolvulus, 504 h; Dosage 320 g/ha, pre-emergence
Procedure, shortened: as §1

[6] = tested on: VIOTR; test: Pre-emergence action against VIOTR; assay type: in vivo, Viola tricolor; conditions: Viola tricolor, 504 h; Dosage 320 g/ha, pre-emergence
Procedure, shortened: as §1

[7] = tested on: VERPE; test: Pre-emergence action against VERPE; assay type: in vivo, Veronica persica; conditions: Veronica persica, 504 h; Dosage 320 g/ha, pre-emergence
Procedure, shortened: as §1

[8] = tested on: ALOMY; test: Post-emergence action against ALOMY; assay type: in vivo, Alopecurus myosuroides; conditions: Alopecurus myosuroides, 504 h; Dosage 80 g/ha, post-emergence
Procedure, shortened: (§2)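 Post-emergence foliar spray on greenhouse plants at the one-leaf stage, using wettable-powder or emulsion-concentrate formulations in water (600 to […], plus 0.2% wetting agent). Damage scored by eye roughly 3 weeks later against untreated plants: 0% = like control, 100% = dead.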

[9] = tested on: AVEFA; test: Post-emergence action against AVEFA; assay type: in vivo, Avena fatua; conditions: Avena fatua, 504 h; post-emergence, dosage 80 g/ha, visual assessment about 3 weeks after treatment vs untreated controls; read-out: Post-emergence action against AVEFA (herbicidal action in percent)
Procedure, shortened: as §2

[10] = tested on: CYPES; test: Post-emergence action against CYPES; assay type: in vivo, Cyperus esculentus; conditions: Cyperus esculentus, 504 h; post-emergence, dosage 80 g/ha, visual assessment about 3 weeks after treatment vs untreated controls; read-out: Post-emergence action against CYPES (herbicidal action in percent)
Procedure, shortened: as §2

[11] = tested on: ECHCG; test: Post-emergence action against ECHCG; assay type: in vivo, Echinochloa crus-galli; conditions: Echinochloa crus-galli, 504 h; post-emergence, dosage 80 g/ha, visual assessment about 3 weeks after treatment vs untreated controls; read-out: Post-emergence action against ECHCG (herbicidal action in percent)
Procedure, shortened: as §2

[12] = tested on: SETVI; test: Post-emergence action against SETVI; assay type: in vivo, Setaria viridis; conditions: Setaria viridis, 504 h; post-emergence, dosage 80 g/ha, visual assessment about 3 weeks after treatment vs untreated controls; read-out: Post-emergence action against SETVI (herbicidal action in percent)
Procedure, shortened: as §2

[13] = tested on: ABUTH; test: Post-emergence action against ABUTH; assay type: in vivo, Abutilon theophrasti; conditions: Abutilon theophrasti, 504 h; post-emergence, dosage 80 g/ha, visual assessment about 3 weeks after treatment vs untreated controls; read-out: Post-emergence action against ABUTH (herbicidal action in percent)
Procedure, shortened: as §2

[14] = tested on: AMARE; test: Post-emergence action against AMARE; assay type: in vivo, Amaranthus retroflexus; conditions: Amaranthus retroflexus, 504 h; post-emergence, dosage 80 g/ha, visual assessment about 3 weeks after treatment vs untreated controls; read-out: Post-emergence action against AMARE (herbicidal action in percent)
Procedure, shortened: as §2

[15] = tested on: MATIN; test: Post-emergence action against MATIN; assay type: in vivo, Matricaria inodora; conditions: Tripleurospermum inodorum, 504 h; post-emergence, dosage 80 g/ha, visual assessment about 3 weeks after treatment vs untreated controls; read-out: Post-emergence action against MATIN (herbicidal action in percent)
Procedure, shortened: as §2

[16] = tested on: PHBPU; test: Post-emergence action against PHBPU; assay type: in vivo, Pharbitis purpurea; conditions: Ipomoea purpurea, 504 h; post-emergence, dosage 80 g/ha
Procedure, shortened: as §2

[17] = tested on: POLCO; test: Post-emergence action against POLCO; assay type: in vivo, Polygonum convolvulus; conditions: Fallopia convolvulus, 504 h; post-emergence, dosage 80 g/ha
Procedure, shortened: as §2

[18] = tested on: STEME; test: Post-emergence action against STEME; assay type: in vivo, Stellaria media; conditions: Stellaria media, 504 h; post-emergence, dosage 80 g/ha
Procedure, shortened: as §2

[19] = tested on: VERPE; test: Post-emergence action against VERPE; assay type: in vivo, Veronica persica; conditions: Veronica persica, 504 h, dosage 80 g/ha
Procedure, shortened: as §2

SMILES | pest or weed control at 320 g/ha [1] [%] | pest or weed control at 320 g/ha [2] [%] | pest or weed control at 320 g/ha [3] [%] | pest or weed control at 320 g/ha [4] [%] | pest or weed control at 320 g/ha [5] [%] | pest or weed control at 320 g/ha [6] [%] | pest or weed control at 320 g/ha [7] [%] | pest or weed control at 80 g/ha [8] [%] | pest or weed control at 80 g/ha [9] [%] | pest or weed control at 80 g/ha [10] [%] | pest or weed control at 80 g/ha [11] [%] | pest or weed control at 80 g/ha [12] [%] | pest or weed control at 80 g/ha [13] [%] | pest or weed control at 80 g/ha [14] [%] | pest or weed control at 80 g/ha [15] [%] | pest or weed control at 80 g/ha [16] [%] | pest or weed control at 80 g/ha [17] [%] | pest or weed control at 80 g/ha [18] [%] | pest or weed control at 80 g/ha [19] [%]
CC(=O)c1c(C(F)F)ccc(C(=O)Nc2nnnn2C)c1Cl [1-164] | 100 | 100 | 100 | 100 | 100 | 100 | 100 | 90 | 80 | 90 | 100 | 90 | 100 | 100 | 100 | 90 | 90 | 90 | 100
CC(=O)c1c(C(F)(F)F)ccc(C(=O)Nc2nnnn2C)c1Cl [1-137, 3-acetyl-2-chloro-N-(1-methyl-1H-tetrazol-5-yl)-4-(trifluoromethyl)benzamide] | 100 | 100 | 100 | 100 | 100 | 100 | 100 | 80 | 100 | 90 | 90 | 100 | 90 | 90 | 90 | 100 | 100 | 100 | 90
CSc1c(C(=O)Nc2nnnn2C)ccc(C(F)F)c1C(=O)C1CC1 [1-67] | 80 | 90 | 100 | 100 | 100 | 100 | 100 | 100 | 100 | 90 | 100 | 100 | 100 | 100 | 100 | 80 | 100 | 100 | 100
CCn1nnnc1NC(=O)c1ccc(C(F)(F)F)c(C(=O)C2CC2)c1C [2-18, 3-(cyclopropylcarbonyl)-N-(1-ethyl-1H-tetrazol-5-yl)-2-methyl-4-(trifluoromethyl)benzamide] | 100 | 100 | 100 | 100 | 90 | 100 | 100 | 100 | 100 | 90 | 100 | 100 | 100 | 100 | 100 | 100 | 100 | 100 | 80
CC(=O)c1c(I)ccc(C(=O)Nc2nnnn2C)c1Cl [1-192] | 100 | 90 | 100 | 100 | 80 | 100 |  | 80 | 80 | 80 | 100 | 100 | 100 | 100 | 100 | 80 | 100 |  | 
